From patent US20050234531A1, “Method to treat age-related macular degeneration” (priority 2001, published 2005)

Tested on: age-related macular degeneration (AMD)
Experiment: PDT with verteporfin combined with scatter threshold laser coagulation therapy in eighteen patients with AMD or early stage AMD
Type: in vivo
Protocol: Eighteen patients ranging in age from 50-80 years of age, and either previously diagnosed with AMD or with early stage AMD have been treated using the inventive method. All of these patients experienced at least some loss of vision pre-treatment.
For PDT, verteporfin was the photosensitive agent and was administered intravenously at a dose of 1-2 mg/kg. Verteporfin was activated using a coherent laser with the red beam (krypton) at a wavelength of 640 nm. For laser coagulation therapy, the spot size was 200 μm and the duration was 0.4 seconds. The number of spots applied was between 150 and 350. The interval between PDT and laser coagulation therapy was 5 minutes to 24 hours.

- Cases of laser-induced neovascularizations (verteporfin PDT plus laser coagulation therapy, patients receiving the inventive treatment): no cases
Substance: verteporfin
- Patients with improved visual acuity, as assessed by accurate reading of a standard vision chart (verteporfin 1-2 mg/kg intravenously, activated at 640 nm, plus laser coagulation therapy 5 minutes to 24 hours apart, within six to eight weeks post-treatment, 18 patients): fifty
- Incidence of the need for retreatment (verteporfin PDT plus laser coagulation therapy, entire patient population treated): zero
- Patients whose vision remained stable, assessed by no further loss of visual acuity (verteporfin PDT plus laser coagulation therapy, over six to nine months, 18 patients): fifty
